According to article PMC6154633, “In Vitro Anticancer Activity and Structural Characterization of Ubiquinones from Antrodia cinnamomea Mycelium” (Molecules : A Journal of Synthetic Chemistry and Natural …, 2017):

What was measured:
[1] = system: PC3 cells; assay: Cytotoxicity, cell counting kit-8 assay, PC3; assay type: cell-based; settings: Homo sapiens, PC-3, mean n = 3
Method: (§1) Three human cancer cell lines (A549, HepG2 and PC3) and normal cell line (MDCK) were obtained from the ATCC (Manassas, VA, USA) and grown on Eagle’s minimum essential medium (EMEM, GIBCO, Waltham, MA, USA) supplemented with F12 medium containing 10% FBS, 100 IU/mL penicillin and 100 μg/mL streptomycin [17].
(§2) Viability of the human cancer cell lines and normal cell line treated with different concentrations of A. cinnamomea extracts, subfractions, and isolates was evaluated using the cell counting kit-8 assay. Briefly, a total of 5 × 10^3 cells/well (A549, HepG2, PC3, or MDCK cells) were seeded into 96-well plates for 12 h, and the cells were treated with various concentrations of the isolated compounds (0.01–100 μM, double dilution method) for 24 h. The original medium was removed, 10% of the cell counting kit-8 in PBS was added to each well, and the plates were incubated for 2 h. The absorbance was measured at 540 nm using an enzyme-linked immunosorbent assay (ELISA) plate reader.
(§3) All experiments were carried out in triplicate, and each experiment was repeated three times. Data analysis was carried out using SPSS statistical package version 18.0 (SPSS, Inc., Armonk, NY, USA). The IC50 values (the concentration of drug necessary to induce 50% inhibition) were measured for all of the tested drugs using the Probit test in the SPSS software. The cell cycle distribution values of mean and standard deviation (mean ± SD) and 95% confidence intervals (CI) of means to verify the statistical significance of all parameters were calculated. The p-values of < 0.05 were adopted as statistically significant. All data are presented in this report as means ± SD of three replicates from three separate experiments.

[2] = system: MDCK cells; assay: Cytotoxicity, cell counting kit-8 assay, MDCK normal cell line; assay type: cell-based; settings: Canis lupus familiaris, non-malignant cell line, 24 h treatment, mean n = 3
Method: as §1, §2, §3

[3] = system: HepG2 cells; assay: Cytotoxicity, cell counting kit-8 assay, HepG2; assay type: cell-based; settings: Homo sapiens, 24 h treatment, mean n = 3
Method: as §1, §2, §3

[4] = system: A549 cells; assay: Cytotoxicity, cell counting kit-8 assay, A549; assay type: cell-based; settings: Homo sapiens, mean n = 3
Method: as §1, §2, §3

[5] = system: A549, HepG2, and PC3 cell lines; assay: Cytotoxicity against three human cancer cell lines (summary statements); assay type: cell-based; settings: in words
Method: as §1, §2, §3

[6] = system: HepG2 cells; assay: Cell cycle distribution analysis by flow cytometry (PI staining); assay type: cell-based, human; settings: for G1 (%) / G2-M (%) / S (%) / sub G1 (%): 24 h, HepG2, mean ± SD
Method: Stock solutions of 4-acetylantrocamol LT3 (20 mM) were prepared by dissolving them in DMSO, and appropriate working dilutions were prepared with the cell culture medium prior to the experiments. For cell cycle distribution analysis, HepG2 cells were treated with DMSO (control) and 4-acetylantrocamol LT3 for 24 h. The cells were then fixed in ice-cold 70% methanol for overnight. After an additional wash with PBS, the cell pellets were stained with 1 mL of propidium iodide (PI) staining solution containing 200 μg of PI in 1 mL of PBS containing 2 mg of DNase free RNase for 30 min. Acquisition and analysis were performed by flow cytometry (FACSCalibur flow cytometer, Becton, Dickinson and Co., Franklin Lakes, NJ, USA) with excitation at 488 nm. Data on each sample represent the percentage of cells in the sub-G1, G1, S, G2/M phases of the cell cycle, respectively.
as §3

SMILES	IC50 ([1]; 24 h treatment) [µM]	IC50 [2] [µM]	IC50 [3] [µM]	IC50 ([4]; A549, 24 h, 24 h treatment) [µM]	further results
COC1=CC(=O)C(CC=C(C)CCC=C(C)CCC=C(C)C)=C(C)C1=O [Compound 1, 5-methoxy-3-methyl-2-(3,7,11-trimethyldodeca-2,6,10-trienyl)cyclohexa-2,5-diene-1,4-dione]	0.014	> 100	> 100	0.382	–
COc1cc(C)c(O)c(OC)c1O [Compound 10, 2,4-dimethoxy-6-methyl-benzene-1,3-diol]	> 100	> 100	> 100	> 100	activity against the cancer cell lines [5]: poor activity
COC1=C(OC)[C@H](O)[C@H](C/C=C(\C)CC/C=C(\C)CCC=C(C)C)[C@@H](C)C1=O [Compound 5, antroquinonol]	0.073	10.5	0.044	0.421	–
COC1=C(OC)[C@H](OC(C)=O)[C@H](C/C=C(\C)CC/C=C(\C)C/C=C/C(C)(C)O)[C@@H](C)C1=O [Compound 2, 4-acetylantrocamol LT3]	4.29	> 100	0.128	0.027	G1 (%) ([6]; 1 μM): 37.4 ± 4.2%; G2-M (%) ([6]; 1 μM): 33.6 ± 4.7%; S (%) ([6]; 1 μM): 15.4 ± 1.6%; sub G1 (%) ([6]; 1 μM): 6.0 ± 0.7%; G1 (%) ([6]; 10 μM): 32.9 ± 2.4%; G2-M (%) ([6]; 10 μM): 33.6 ± 5.6%; S (%) ([6]; 10 μM): 19.3 ± 4.9%; sub G1 (%) ([6]; 10 μM): 9.2 ± 2.1%; sub-G1 phase accumulation compared with control cells ([6]; HepG2, 24 h, dose dependent): 4–7 fold
COC1=C(OC)C(=O)C(C/C=C(\C)CC/C=C(\C)CCC=C(C)C)=C(C)C1=O [Compound 3, quinone Q3]	0.06	> 100	> 100	4.16	–
CC(=O)O[C@H]1C(=O)[C@@]2(C)[C@H]([C@H](OC(=O)c3ccccc3)[C@]3(O)C[C@H](OC(=O)[C@H](O)[C@@H](NC(=O)c4ccccc4)c4ccccc4)C(C)=C1C3(C)C)[C@]1(OC(C)=O)CO[C@@H]1C[C@@H]2O [Taxol, reference compound]	–	–	–	–	IC50 ([1]; positive control, unit given in row label): 0.000461 µM; IC50 ([4]; A549, positive control, unit given in row label): 0.000354 µM
COc1cc(C)c(OC)c2c1OCO2 [Compound 9, 4,7-dimethoxy-5-methyl-1,3-benzodioxole]	13.3	> 100	> 100	> 100	activity against the cancer cell lines [5]: poor activity
COC1=C(OC)[C@H](OC(C)=O)[C@H](C/C=C(\C)CC/C=C(\C)C[C@H]2C[C@@H](C)C(=O)O2)[C@@H](C)C1=O [Compound 8, 4-acetylantroquinonol B]	20.3	> 100	> 100	35.9	–
COC1=C(OC)[C@H](O)[C@H](C/C=C(\C)CC/C=C(\C)C/C=C/C(C)(C)O)[C@@H](C)C1=O [Compound 4, antrocamol LT3]	0.001	> 100	0.106	–	–
CC(C)=CCOc1ccc(C2=C(CC(C)C)C(=O)OC2=O)cc1 [Compound 11, antrodin A]	> 100	> 100	90.4	> 100	activity against the cancer cell lines [5]: poor activity
COC1=C(OC)[C@H](O)[C@H](C/C=C(\C)CC/C=C(\C)C[C@H]2C[C@@H](C)C(=O)O2)[C@@H](C)C1=O [Compound 7, antroquinonol B]	1.03	> 100	21.4	6.03	–
COC1=C(OC)[C@H](OC(C)=O)[C@H](C/C=C(\C)CC/C=C(\C)CCC=C(C)C)[C@@H](C)C1=O [Compound 6, 4-acetylantroquinonol]	2.31	41.6	0.075	0.611	–
COc1cc([C@@H]2c3cc4c(cc3[C@@H](O[C@@H]3O[C@@H]5CO[C@@H](C)O[C@H]5[C@H](O)[C@H]3O)[C@H]3COC(=O)[C@H]23)OCO4)cc(OC)c1O [Vepesid, reference compound]	–	–	4.05	–	–
